# Source: patent publication US8778643B2, “Methods for increasing lipid levels and producing triacylglycerols in algae” (priority 2012, dated 2014)
# Read-outs that look alike come from different tables or passages of the source.
# What was measured:
# microalgae = experiment: 500 mL batch culture (growth, gravimetric lipids), algae strain not stated; assay type: cell-based; settings: 500 mL batch cultures (Table 30)
# Nannochloris sp. [1] = experiment: Microplate assay: growth (absorbance 680 nm) and intracellular lipids (Nile Red fluorescence); assay type: cell-based
# Nannochloropsis salina [2] = experiment: 500 mL batch culture: growth, dry weight and lipid extract (gravimetric); assay type: cell-based
# Protocol: (§1) Batch cultures were grown in 500 mL Pyrex media bottles with stirring and air bubbling (homemade manifold with Petco air pump, 2-4% CO2). Incoming air was sterile filtered by Polyvent 4 disposable filters (Whatman, Kent, UK). […] To minimize bacterial contamination, all equipment and materials were autoclaved and media was added to flask in a Purifier Vertical Clean bench (Labconco, Kansas City, Mo.). […] The amount of DMSO is standardized for all experiments to 0.4%.
# (§2) For all compound cultures, the 2 mL DMSO stock solution was added to media (without algae) first and mixed well. Control cultures were grown without DMSO. DMSO controls consisted of 0.04-1.0% DMSO. After the addition of algae and media, the container was plugged with a bug stopper vented closure cap and mixed thoroughly. Absorbance is measured immediately for Day 0 analysis. Afterward, absorbance was measured every 1-2 days with a cuvette (1 mL volume) on the Thermo Scientific Genesys 10S V is Spectrophotometer (ThermoFisher, San Jose) at 680 nm.
# (§3) Batch cultures were also repeated in triplicate and compared to a control culture grown at the same time. Algae were harvested and lipids were extracted for gravimetric analysis.
# Cultures were harvested at day 6 in stationary phase. Cultures were pelleted, lyophilized, and extracted side-by-side. The experiment was performed in triplicate.
# The nonpolar algal extracts were harvested from 500 mL cultures when indicated on growth curves, a minimum of 3 days into stationary phase. […] Cells were crushed and nonpolar lipids were extracted by sonication (Fisher Scientific Model 120 Sonic Dismembrator, ThermoFisher, San Jose) for 1 minute in chloroform, followed by chloroform-methanol extractions, washed with PBS butter, and dried under vacuum.^55-60 The crude non-polar algae extracts were then analyzed by ^1H Nuclear Magnetic Resonance (^1H NMR) for verification of TAG presence and examination of the purity of the extract (determination of level of chlorophyll).
# (§4) Cell density was monitored by measuring absorbance at 680 nm every 1-2 days.
# (§5) 500-mL cultures were harvested 6 days into stationary phase based on absorbance values. Cells were concentrated by centrifugation and lyophilization to remove water. Nonpolar lipids were extracted by sonication and solvent (chloroform-methanol and PBS buffer). […] Changes in lipid levels for batch cultures were determined by crude lipid extract mass.
# Nannochloropsis oculata [3] = experiment: Lipid composition of batch culture extracts (fatty acid saturation / PUFA by 1H NMR, MALDI-TOF, GC/MS); assay type: cell-based; settings: for SFAs (% of total lipids) / n3 PUFAs (% of UFAs) / All other PUFAs and MUFAs (% of UFAs) / UFAs (% of total lipids): 1H NMR; for SFAs (% of total lipids): Normal 24; for n3 PUFAs (% of UFAs): Normal 37; for All other PUFAs and MUFAs (% of UFAs): Normal 63; for UFAs (% of total lipids): Normal 76
# Nannochloropsis salina [4] = test system: Nannochloropsis salina
# Protocol: (§6) Stock cultures were aerated by stirring with bubbling air (homemade manifold with Petco air pump, 2-4% CO2) or by orbital shaking (Thermo Scientific MAXQ 2000) at a constant speed of 150 rpm at 22±3° C. with a 16:8 hour light/dark cycle. Stocks were kept at stationary phase for use. Algae were prepared as dictated by culture center.
# (§7) Compounds were selected based on reported biological activity in non-microalgae organisms. To ensure that compounds retained their quality, they were stored under advised conditions after purchasing from the manufacturer. Solutions of all assay compounds were prepared as 10 mM stock solutions by dissolving in DMSO in 2-dram amber vials and then stored in darkness −20° C. 96-well PCR plates were used to create a stock plate layout that was then transferred to the algae microplates. A plate map was used to distribute each compound to a well based on molecule name, collection number, and CAS number. For 20 μM and 200 nM assay plates, 10 mM compound stock in DMSO was diluted into plate maps of 5 mM and 50 μM assay stocks, respectively.
# (§8) All materials for assay experiments were autoclaved before each use to maintain axenic algae cultures. Algae species were checked for homogeneity using a TS-100 light microscope (Nikon, Japan). […] Diluted stock solutions were made immediately prior to use for consistency and optimal plate growth. Cell density was measured on a Thermo Scientific Genesys 10S Vis Spectrophotometer (ThermoFisher, San Jose), using a 1 mL cuvette at 680 nm.
# (§9) Plates were originally run in triplicate, before replicates were increased to quadruplicate, along with a separate control plate to compare growth. Due to extensive evaporation in exterior wells over time, our unique algae plate layout was designed to use the 60 interior wells out of 96 wells for the experiment. The 36 outer wells were filled with Millipore water and media to prevent evaporation and edge effects in the inner algae wells, as well as serve as blanks. The 60 wells with algae contained a total volume of 251 μL (100 μL of media+DMSO compound stock +150 μL dilute algae stock). For 20 μM and 200 nM assay plates, 10 mM compound stock in DMSO is diluted into plate maps of 5 mM and 50 μM assay stocks, respectively. […] Plates were parafilmed during growth to limit the amount of evaporation that can occur. Plates were numbered, and numerically ordered to ensure they got the same shaker space.
# (§10) The shakers are kept at a constant shaking of 150 rpm. Ambient temperature is 22±3° C.
# [5] = test system: Phaeodactylum tricornutum; experiment: Microplate assay: growth (absorbance 680 nm) and intracellular lipids (Nile Red fluorescence); assay type: cell-based
# Protocol: as §6, §7, §8, §9, §10
# Nannochloropsis oculata [6] = experiment: 500 mL batch culture: growth, dry weight and lipid extract (gravimetric); assay type: cell-based; settings: for increase in lipid levels: 500 mL batch cultures, gravimetric (Table 30); for Change in Lipids: gravimetric, relative to averaged control without DMSO; for Specific Growth Rate: mid-exponential growth phase
# Protocol: as §1, §2, §3
# The nonpolar algal extracts were harvested from 500 mL cultures when indicated on growth curves, a minimum of 3 days into stationary phase.
# as §4, §5
# Nannochloris sp. [7] = experiment: as above; assay type: cell-based; settings: for increase in lipid levels: 500 mL batch cultures, gravimetric (Table 30); for Lipid productivity / Change in Lipids / Specific Growth Rate: Nannochloris sp., 500 mL culture; for Change in Lipids: gravimetric, relative to averaged control without DMSO; for Specific Growth Rate: mid-exponential growth phase
# Nannochloropsis oculata [8] = settings: for % Increase based on Nile Red Fluorescence Intensity: DMSO delivery, added t=day 0
# Protocol: as §6, §7, §8, §9, §10
# Nannochloropsis sp. = experiment: Microplate assay: increase of lipid production (Table 17); assay type: cell-based; settings: best conc. 2.4 nM
# Text: We also tested a collection with more antioxidants, kinase inhibitors, and further compounds for increase of lipid production with N. salina, P. tricornutum, N. oculata, and Nannochloropsis sp.
# FABI = settings: cited from earlier work
# PKC = settings: PKC; cited from earlier work
# [9] = 200 nM, initial microplate screen, relative to control
# [10] = microplate dose-response screening
# [11] = N. oculata, 4 nM, harvested day 6 of stationary phase, n=3
# [12] = N. oculata, 500 mL culture, 4 nM
# [13] = 20 μM, initial microplate screen, relative to control
# [14] = microplate assay, multiple concentrations
# [15] = N. oculata, 500 mL culture, 400 nM
compound,measurement,setting,value
"C=C[C@@]1(C)CC(=O)[C@]2(O)[C@@]3(C)[C@@H](O)CCC(C)(C)[C@@H]3[C@H](O)[C@H](OC(C)=O)[C@@]2(C)O1 [Forskolin, (3R,4aR,5S,6S,6aS,10S,10aR,10bS)-6,10,10b-Trihydroxy-3,4a,7,7,10a-pentamethyl-1-oxo-3-vinyldodecahydro-1H-benzo[f]chromen-5-yl acetate]",effect on growth and lipid levels,microalgae,positive increases in growth and lipid levels
same,Nile Red percent increase,"Nannochloris sp. [1]; 13 nM, dose-response microplate screen",121%
same,Nile Red percent increase,"Nannochloris sp. [1]; 41.2 nM, dose-response microplate screen",118%
same,Absorbance (percent increase),Nannochloris sp. [1]; [9],−5.5%
same,Nile Red percent increase,Nannochloris sp. [1]; [9],60.6%
same,Nile Red Fluorescence % Increase,"Nannochloris sp. [1]; Nannochloris sp., compounds tested at 20 μM, initial screening, p<0.05",45.3%
same,lipid increase relative to the control,Nannochloris sp. [1]; [10],≥ 100%
same,effect on growth and lipid levels,Nannochloropsis salina [2]; 500 mL batch culture,increases in lipid production
same,SFAs (% of total lipids),Nannochloropsis oculata [3]; 40 nM,59 % of total lipids
same,n3 PUFAs (% of UFAs),Nannochloropsis oculata [3]; 40 nM,61 % of UFAs
same,All other PUFAs and MUFAs (% of UFAs),Nannochloropsis oculata [3]; 40 nM,39 % of UFAs
same,UFAs (% of total lipids),Nannochloropsis oculata [3]; 40 nM,41 % of total lipids
same,lipid increase relative to the control,Nannochloropsis salina [4]; [10],~40%
same,Absorbance (percent increase),[5]; [9],−1.2%
same,Nile Red percent increase,[5]; [9],103.6%
same,lipid increase relative to the control,[5]; [10],~40%
same,effect on growth and lipid levels,Nannochloropsis oculata [6]; 500 mL batch culture,increases in lipid production
same,increase in lipid levels,Nannochloropsis oculata [6],84%
same,Absorbance at harvest,Nannochloropsis oculata [6]; [11],2.10
same,Dry weight,Nannochloropsis oculata [6]; [11],353.57 mg
same,Extract Weight,Nannochloropsis oculata [6]; [11],88.67 mg
same,Number of Cells,Nannochloropsis oculata [6]; [11],2.46E+09
same,Recovered Weight,Nannochloropsis oculata [6]; [11],344.90 mg
same,Lipid productivity,Nannochloropsis oculata [6]; [12],6.4 ± 1.2 mgL^−1day^−1
same,Lipid content,"Nannochloropsis oculata [6]; N. oculata, 500 mL culture, 4 nM, dried lipid extract per dry biomass",25.6 ± 1.8 % w/w
same,Change in Lipids,Nannochloropsis oculata [6]; [12],84%
same,Specific Growth Rate,Nannochloropsis oculata [6]; [12],0.17 ± 0.02 day⁻¹
same,effect on growth and lipid levels,Nannochloris sp. [7]; 500 mL batch culture,increases in lipid production
same,increase in lipid levels,Nannochloris sp. [7],51%
same,Lipid productivity,Nannochloris sp. [7]; 10 μM,4.5 ± 1.7 mgL^−1day^−1
same,Change in Lipids,Nannochloris sp. [7]; 10 μM,51%
same,Specific Growth Rate,Nannochloris sp. [7]; 10 μM,0.15 ± 0.05 day⁻¹
same,Absorbance (percent increase),Nannochloropsis oculata [8]; [13],−17.3%
same,Nile Red percent increase,Nannochloropsis oculata [8]; [13],50.4%
same,lipid increase relative to the control,Nannochloropsis oculata [8]; [10],≥ 100%
"Cc1c(C)c2c(c(C)c1O)CC[C@@](C)(CCC[C@H](C)CCC[C@H](C)CCCC(C)C)O2 (racemic) [DL-α-Tocopherol (Vitamin E), (2R)-2,5,7,8-tetramethyl-2-[(4R,8R)-4,8,12-trimethyltridecyl]-3,4-dihydrochromen-6-ol]",% Inc,Nannochloropsis sp.,31.44%
"O=C(O[C@@H]1Cc2c(O)cc(O)cc2O[C@@H]1c1ccc(O)c(O)c1)c1cc(O)c(O)c(O)c1 [(−)-epicatechin gallate, [(2R,3R)-2-(3,4-dihydroxyphenyl)-5,7-dihydroxy-3,4-dihydro-2H-chromen-3-yl] 3,4,5-trihydroxybenzoate]",IC50,FABI,200 nM
same,effect on lipid production / lipid levels,Nannochloris sp. [1]; [14],lipid production increased
same,effect on lipid production / lipid levels,Nannochloropsis salina [4]; [14],lipid production increased
same,% Inc,"[5]; increase of lipid production, P. tricornutum, best conc. 156 nM",77.89%
same,effect on lipid production / lipid levels,[5]; [14],lipid production increased
same,concentration of the highest lipid increase,"[5]; microplate, catechin screen (FIG. 14)",39 to 56 nM
same,effect on lipid production / lipid levels,Nannochloropsis oculata [8]; [14],lipid production increased
COC(=O)[C@@]1(O)C[C@H]2O[C@]1(C)n1c3ccccc3c3c4c(c5c6ccccc6n2c5c31)C(=O)NC4 [K-252a],Ki,PKC,25 nM
"CCN(CC)CCCC(C)Nc1c2ccc(Cl)cc2nc2ccc(OC)cc12.Cl.Cl (stereo not shown) [Quinacrine, 6-Chloro-9-(4-diethylamino-1-methylbutyl-amino)-2-methoxyacridine dihydrochloride]",effect on growth and lipid levels,microalgae,positive increases in growth and lipid levels
same,% Increase based on Nile Red Fluorescence Intensity,Nannochloris sp. [1],135%
same,% Lipid increase based on Nile red fluorescence intensity,"Nannochloris sp. [1]; Nannochloris sp., 49 nM, (water), t=day 0",136%
same,% Increase based on Nile Red Fluorescence Intensity,"Nannochloris sp. [1]; Nannochloris sp., 49 nM, dissolved in water, added t=day 0",136%
same,increase in intracellular lipids compared to the control (Nile red),"Nannochloris sp. [1]; in water, dose-response microplate screening",more than 100%
same,Lipid productivity,"Nannochloropsis salina [2]; N. salina, 500 mL culture, 40 nM",4.5 ± 1.0 mgL^−1day^−1
same,Lipid content,"Nannochloropsis salina [2]; N. salina, 500 mL culture, 40 nM, dried lipid extract per dry biomass",26.5 ± 3.9 % w/w
same,Change in Lipids,"Nannochloropsis salina [2]; N. salina, 500 mL culture, 40 nM, gravimetric, relative to averaged control without DMSO",6%
same,Specific Growth Rate,"Nannochloropsis salina [2]; N. salina, 500 mL culture, 40 nM, mid-exponential growth phase",0.25 ± 0.02 day⁻¹
same,SFAs (% of total lipids),Nannochloropsis oculata [3]; 4 nM,53 % of total lipids
same,n3 PUFAs (% of UFAs),Nannochloropsis oculata [3]; 4 nM,45 % of UFAs
same,All other PUFAs and MUFAs (% of UFAs),Nannochloropsis oculata [3]; 4 nM,55 % of UFAs
same,UFAs (% of total lipids),Nannochloropsis oculata [3]; 4 nM,47 % of total lipids
same,SFAs (%),"Nannochloropsis oculata [3]; N. oculata, 400 nM, n=1, Normal 0 ± 1",3%
same,MUFAs (%),"Nannochloropsis oculata [3]; N. oculata, 400 nM, n=1, Normal 4 ± 7",12%
same,n3 PUFAs (%),"Nannochloropsis oculata [3]; N. oculata, 400 nM, n=1, Normal 28 ± 4",17%
same,PUFAs (%),"Nannochloropsis oculata [3]; N. oculata, 400 nM, n=1, Normal 96 ± 7",76%
same,Nile Red percent increase,"Nannochloropsis salina [4]; 55 nM, dose-response microplate screen",103%
same,increase in lipid levels,Nannochloropsis oculata [6],51%
same,Lipid productivity,Nannochloropsis oculata [6]; [15],5.2 ± 0.6 mgL^−1day^−1
same,Change in Lipids,Nannochloropsis oculata [6]; [15],51%
same,Specific Growth Rate,Nannochloropsis oculata [6]; [15],0.18 ± 0.04 day⁻¹
same,increase in lipid levels,Nannochloris sp. [7],31%
same,Lipid productivity,Nannochloris sp. [7]; 40 nM,4.2 ± 1.1 mgL^−1day^−1
same,Change in Lipids,Nannochloris sp. [7]; 40 nM,31%
same,Specific Growth Rate,Nannochloris sp. [7]; 40 nM,0.18 ± 0.01 day⁻¹
same,% Lipid increase based on Nile red fluorescence intensity,"Nannochloropsis oculata [8]; N. oculata, 244 nM, DMSO, t=day 0",106%
same,% Increase based on Nile Red Fluorescence Intensity,"Nannochloropsis oculata [8]; N. oculata, 61 pM",100%
same,% Increase based on Nile Red Fluorescence Intensity,"Nannochloropsis oculata [8]; N. oculata, 244 pM",106%
same,% Increase based on Nile Red Fluorescence Intensity,"Nannochloropsis oculata [8]; N. oculata, 976 pM",93%
same,% Increase based on Nile Red Fluorescence Intensity,"Nannochloropsis oculata [8]; N. oculata, 4 nM",75%
same,% Increase based on Nile Red Fluorescence Intensity,"Nannochloropsis oculata [8]; N. oculata, 15.6 nM",66%
